Laboratory results reported in patent US5484778A, “Phthalocyanine photosensitizers for photodynamic therapy and methods for their use” (priority 1993, dated 1996).
“Also recorded” adds a separate entry of the source.

How the values were obtained:
[1] = system: Chinese hamster V79-379 cells; assay: Clonogenic cell survival / photocytotoxicity in V79 cells (Table 1, FIG. 1, FIG. 2); type: cell-based; conditions: for CF10 (AlPcCl)/CF10 (Pc) / F10 (AlPcCl)/F10 (Pc): 18 h; for photosensitizing efficiency / photocytotoxicity (in words): V79 cells, red light
Method in brief: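 V79-379 Chinese hamster lung fibroblasts were loaded with phthalocyanine (0.5-1.0 μM final) for 18 hours, then irradiated in HBSS with >600 nm red light at approximately 0.074 kJ/m^2/s. Survival was scored by colony formation (≥50 cells, 7-10 days), giving F10 and the uptake-adjusted CF10 (intracellular concentration × fluence) relative to 1 μM AlPcCl.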

L5178Y cells = assay: Induction of apoptosis (DNA fragmentation) in L5178Y-R cells (Table 6); type: cell-based, mouse; conditions: 0.4 μM
Method in brief: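 Exponentially growing mouse lymphoma L5178Y-R cells loaded 18 hours with phthalocyanine at various concentrations, then irradiated with >600 nm red light (up to 30 kJ/m^2, ~74 W/m^2). DNA isolated 2 hours post-PDT, run on 1.5% agarose; value is minimum PDT dose (concentration × fluence) giving visible DNA ladder.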

RIF-1 tumors = assay: PDT of RIF-1 implanted tumors with PcIV and multiple exposures to light (Table 8); type: in vivo, C3H/HeN mice; conditions: for % of Mice Surviving: 1 mg/kg
Procedure: To overcome the regrowth, RIF-1 tumors were implanted in C3H/HeN mice, and the mice were treated with PcIV followed by multiple exposures to light. For multiple exposures to light to be successful, the tumor tissue must retain sufficient levels of the photosensitizer over the exposure period.
Thereafter, the tumors were irradiated with an argon ion pumped dye laser tuned at 675 nm for the total light dose of 135 J/cm^2 (75 mW/cm^2).

CN(C)CCC[Si](C)(C)O[Si]1(O)n2c3c4ccccc4c2N=C2N=C(N=c4c5ccccc5c(n41)=NC1=NC(=N3)c3ccccc31)c1ccccc12 (stereo not drawn) [Compound IV, HOSiPcOsi(CH3)2)(CH2)3 N(CH3)2]
CF10 (AlPcCl)/CF10 (Pc) ([1]; 0.5 μM): 3.9
F10 (AlPcCl)/F10 (Pc) ([1]; 0.5 μM): 1.85
CF10 (AlPcCl)/CF10 (Pc) ([1]; 1.0 μM, CF10 = intracellular concentration x fluence reducing survival to 10%): 3.5
F10 (AlPcCl)/F10 (Pc) ([1]; 1.0 μM, F10 = fluence reducing survival to 10%): 4.25
photosensitizing efficiency / photocytotoxicity (in words) [1]: almost twice as efficient as the standard AlPcCl; also recorded: most efficient photosensitizer
photosensitizing efficiency / photocytotoxicity (in words) ([1]; listed as SiPc(OH)(OSi(CH3)2 (CH2)3 N(CH3)2)): most efficient photosensitizer, as judged by uptake, growth delay, and photocytotoxicity
Minimum Demonstrated Condition to induce apoptosis: C × F (L5178Y cells): 1.2 μm × kJ/m^2
Minimum Demonstrated Condition to induce apoptosis: Fluence (L5178Y cells): 3.0 kJ/m^2
% of Mice Surviving (RIF-1 tumors; 360 h): 100%
% of Mice Surviving (RIF-1 tumors; 2880 h): 0%
% of Mice Surviving (RIF-1 tumors; DPPC liposomes, 30 days, exposure day 2): 100%
% of Mice Surviving (RIF-1 tumors; corn oil, 15 days, exposure day 2): 100%
% of Mice Surviving (RIF-1 tumors; corn oil, 15 days, exposure days 2-6): 100%
tumor regrowth (RIF-1 tumors; DPPC liposomes, 30 days after PDT, irradiated only one or two times): Tumor regrowth occurred 30 days after photodynamic therapy
tumor regrowth (RIF-1 tumors; DPPC liposomes, 120 days after PDT, three to five exposures): No tumor regrowth occurred even at 120 days
tumor regrowth (RIF-1 tumors; DPPC liposomes, 300 days after light treatment): no evidence of tumor regrowth
tumor cure (RIF-1 tumors; DPPC liposomes, irradiated three, four or five times at 24 hour interval): complete tumor cure was evident
tumor regrowth (RIF-1 tumors; corn oil, 15 days after PDT, all multiple exposure protocols): regrowth of tumors was evident 15 days after photodynamic therapy in all the multiple exposure protocols
